Laboratory results published in article PMC10693528, “A high-throughput metabolomics in vitro platform for the characterization of hepatotoxicity” (Cell Biology and Toxicology, 2023).

Tested on: HepG2 cells
Test: LC-MS/MS targeted intracellular metabolomics
Type: cell-based, human
Conditions: Suppl Fig 10, C3 (C2 for Aroclor), 48 h
Experimental: Metabolite profiling of cells was performed directly in the same 96-well plate according to a standardized protocol described below. In order to prevent any interaction with the cell material, the automatic sampler was adjusted to pick up the sample from the supernatant at a specified depth avoiding the contact with the bottom of the plate.
After the initial quenching step (50 μL isopropanol 80%), additional 70 μL of isopropanol 80%, containing internal standards (methionine-D3, tryptophan-D5, arginine-13C6-15N4, Boc-Ala-Gly-Gly-Gly-OH, coenzyme Q1, coenzyme Q2, coenzyme Q4) were added to each well. The internal standards were used for quality control by visual inspection (signal intensity, peak shape, retention time); they were not used for normalization. Afterwards, plates were shaken for 5 min, 750 rpm at 20 °C, and placed for 30 s in the ultrasonic device. Then, the plates were centrifugated for 10 min, at 5485 g, 15 °C. Further, 2.5 μL of the extract were injected each for reversed-phase and hydrophilic interaction liquid chromatography followed by MS/MS detection (AB Sciex QTrap 6500+) using the positive and negative ionization mode. For reverse-phase high-performance liquid chromatography (RP-HPLC, Ascentis Express C18, 5 cm × 2.1 mm, 2.7 μm Supelco), gradient elution was performed with mobile phase A, water/methanol/0.1 M ammonium formate (1:1:0.02, w/w), and B, methyl-tert-butylether/2-propanol/methanol/0.1 M ammonium formate/formic acid (4:2:1:0.07:0.035, w/w) 5.9 min linear gradient: 0 min 100% A, 0.5 min 75% A, 5.9 min 10% A; followed by 0% A until 6.7 min; re-equilibration at 100% A until 7.7 min; flow rate 600 μL/min; column temperature 40 °C HILIC (ZIC-HILIC, 2.1 × 100 mm, 3.5 μm, Supelco) gradient elution was performed with mobile phase C, acetonitrile/water (99:1, v/v) with 0.2% (v) acetic acid, and D, 7 mM ammonium acetate with 0.2% (v) acetic acid (5.0 min linear gradient: 0 min 100% C, 5 min 10% C; followed by a linear gradient back to 100%C until 6.5 min; re-equilibration at 100% C until 7.5 min; flow rate 600 μL/min; column temperature 40 °C.). Two LC-MS systems with identical configuration were used for the analysis. Normalization to lyophilized reference samples (see below) was used to compensate for variation from between analytical batches. The efficiency of this normalization procedure was checked by principal component analysis (PCA), confirming that Pool samples from different analytical batches clustered together.
Reference samples derived from lyophilized untreated HepG2 cells (technical control samples) were measured in parallel throughout the entire analytical process. Data were normalized against the median of these lyophilized HepG2 cells reference samples, to give normalized ratios (performed for each sample per metabolite). This compensated for inter- and intra-instrumental variation. To correct for small differences in cell numbers within and between different treatment groups, data were also normalized to the within sample median, as described in detail by (Ramirez et al. [2018]). For intracellular metabolomic analysis, the median of each sample was calculated across all the 221 measured metabolites.
To generate metabolic profiles for the different treatments, heteroscedastic t test (Welch test) was applied to log-transformed normalized metabolite data to compare treated groups with their respective controls.
Principal component analysis (PCA) and hierarchical clustering (HCA) analyses were performed using R software environment (https://www.r-project.org/). PCA was conducted using the ropls package (Thévenot et al. [2015]) with log10-transformed input data and standard scaling. HCA was performed using the pvclust package (Suzuki et al. [2019]), (https://CRAN.R-project.org/package=pvclust). Input: log10(Ratio), clustering method: Ward D2, distance method: Manhattan, bootstrapping: 10000 times.

[1] = first of two lines with this name
[2] = second of two lines with this name

SMILES: CCC(CC)Nc1c([N+](=O)[O-])cc(C)c(C)c1[N+](=O)[O-] [Pendimethalin]
- Carnitine level vs controls: 0.76
- Ceramide (d16:1.C24:0) level vs controls: 1.35
- Ceramide (d17:1.C24:0) level vs controls: 1.40
- Ceramide (d18:1.C20:0) level vs controls: 0.81
- Ceramide (d18:1.C22:1) level vs controls: 0.43
- Ceramide (d18:1.C24:1) level vs controls: 0.54
- Ceramide (d18:2.C16:0) level vs controls: 2.06
- Ceramide (d18:2.C23:0) level vs controls: 1.14
- Ceramide (d18:2.C24:0) level vs controls: 1.87
- Ceramide (d18:2.C24:1) level vs controls: 1.17
- Choline plasmalogen (C36:4) level vs controls: 0.63
- Choline plasmalogen (C36:5) level vs controls: 0.68
- Cysteinylglycine level vs controls: 1.14
- Flavin adenine dinucleotide (FAD) level vs controls: 1.14
- Glutathione (GSH) level vs controls: 1.12
- Hexanoylcarnitine level vs controls: 0.69
- Isopentenyl pyrophosphate (IPP) level vs controls: 2.79
- Lysophosphatidylcholine (C14:0) level vs controls: 2.28
- Lysophosphatidylcholine (C16:0) level vs controls: 2.37
- Lysophosphatidylcholine (C20:0) level vs controls: 2.37
- Lysophosphatidylcholine (C20:1) level vs controls: 1.47
- Lysophosphatidylcholine (C20:4) level vs controls: 2.32
- Lysophosphatidylcholine (C22:0) level vs controls: 3.44
- Lysophosphatidylcholine (C24:0) level vs controls: 4.49
- Lysophosphatidylcholine (C24:1) level vs controls: 3.59
- Lysophosphatidylethanolamine (C16:0) level vs controls: 1.81
- Lysophosphatidylethanolamine (C18:0) level vs controls: 2.07
- N-Acetylglucosamine level vs controls: 0.93
- N-Acetylserine level vs controls: 1.47
- O-Acetylcarnitine level vs controls: 1.02
- Pantothenic acid level vs controls: 0.78
- Phosphatidylcholine (C32:0) level vs controls: 1.93
- Phosphatidylcholine (C34:0) level vs controls: 1.83
- Phosphatidylcholine (C34:2) level vs controls: 0.64
- Phosphatidylcholine (C34:3) level vs controls: 0.79
- Phosphatidylcholine (C36:0) level vs controls: 2.49
- Phosphatidylcholine (C36:1) level vs controls: 0.93
- Phosphatidylcholine (C36:2) level vs controls: 0.52
- Phosphatidylcholine (C36:3) level vs controls: 0.73
- Phosphatidylcholine (C36:4) level vs controls: 1.10
- Phosphatidylcholine (C38:6) level vs controls: 1.15
- Phosphatidylethanolamine (C32:0) level vs controls: 3.04
- Phosphatidylethanolamine (C34:0) level vs controls: 2.78
- Phosphatidylethanolamine (C34:1) level vs controls: 1.48
- Phosphatidylethanolamine (C34:2) level vs controls: 0.68
- Phosphatidylethanolamine (C36:0) level vs controls: 3.98
- Phosphatidylethanolamine (C36:1) level vs controls: 1.46
- Phosphatidylethanolamine (C36:3) level vs controls: 0.82
- Phosphatidylethanolamine (C38:5) level vs controls: 0.79
- Phosphatidylethanolamine (C40:7) level vs controls: 0.57
- Proline level vs controls: 0.89
- Propionylcarnitine level vs controls: 0.65
- Sphingomyelin (d32:1) level vs controls: 0.92
- Sphingomyelin (d35:1) level vs controls: 1.07
- Sphingomyelin (d38:2) level vs controls: 0.76
- Sphingomyelin (d40:2) level vs controls: 0.93
- Sphingomyelin (d41:2) level vs controls: 0.79
- Sphingomyelin (d42:2) level vs controls: 0.73
- Triacylglycerol (C30:0.C18:1) level vs controls: 0.81
- Triacylglycerol (C32:0.C16:1) level vs controls: 0.66
- Triacylglycerol (C32:1.C16:1) level vs controls: 0.58
- Triacylglycerol (C34:0.C18:1) level vs controls: 0.96
- Triacylglycerol (C34:1.C16:0) level vs controls: 0.79
- Triacylglycerol (C34:1.C18:1) level vs controls: 0.71
- Triacylglycerol (C34:2.C18:0) level vs controls: 0.87
- Triacylglycerol (C34:2.C18:1) level vs controls: 0.44
- Triacylglycerol (C36:1.C18:0) level vs controls: 0.86
- Triacylglycerol (C36:1.C18:1) level vs controls: 0.65
- Triacylglycerol (C36:1.C18:2) level vs controls: 0.83
- Triacylglycerol (C36:2.C18:1) level vs controls: 0.49
- Triacylglycerol (C36:3.C18:1) level vs controls: 0.78
- Tyrosine level vs controls: 1.14
- myo-Inositol-2-phosphate level vs controls: 0.76
- Sphingomyelin (d34:2) level vs controls [1]: 1.11
- Sphingomyelin (d34:2) level vs controls [2]: 1.27

SMILES: O=c1cc(-c2ccccc2)oc2ccc3ccccc3c12 [β-naphthoflavone]
- Carnitine level vs controls: 0.88
- Ceramide (d16:1.C24:0) level vs controls: 1.20
- Ceramide (d17:1.C24:0) level vs controls: 1.24
- Ceramide (d18:1.C20:0) level vs controls: 0.73
- Ceramide (d18:1.C22:1) level vs controls: 0.65
- Ceramide (d18:1.C24:1) level vs controls: 0.64
- Ceramide (d18:2.C16:0) level vs controls: 1.48
- Ceramide (d18:2.C23:0) level vs controls: 1.56
- Ceramide (d18:2.C24:0) level vs controls: 1.41
- Ceramide (d18:2.C24:1) level vs controls: 1.23
- Choline plasmalogen (C36:4) level vs controls: 0.82
- Choline plasmalogen (C36:5) level vs controls: 0.84
- Cysteinylglycine level vs controls: 3.16
- Flavin adenine dinucleotide (FAD) level vs controls: 1.63
- Glutathione (GSH) level vs controls: 2.59
- Hexanoylcarnitine level vs controls: 1.02
- Isopentenyl pyrophosphate (IPP) level vs controls: 2.43
- Lysophosphatidylcholine (C14:0) level vs controls: 1.48
- Lysophosphatidylcholine (C16:0) level vs controls: 2.15
- Lysophosphatidylcholine (C20:0) level vs controls: 2.34
- Lysophosphatidylcholine (C20:1) level vs controls: 2.23
- Lysophosphatidylcholine (C20:4) level vs controls: 1.68
- Lysophosphatidylcholine (C22:0) level vs controls: 1.99
- Lysophosphatidylcholine (C24:0) level vs controls: 2.67
- Lysophosphatidylcholine (C24:1) level vs controls: 2.34
- Lysophosphatidylethanolamine (C16:0) level vs controls: 1.77
- Lysophosphatidylethanolamine (C18:0) level vs controls: 2.25
- N-Acetylglucosamine level vs controls: 0.79
- N-Acetylserine level vs controls: 1.03
- O-Acetylcarnitine level vs controls: 0.87
- Pantothenic acid level vs controls: 0.96
- Phosphatidylcholine (C32:0) level vs controls: 1.16
- Phosphatidylcholine (C34:0) level vs controls: 1.39
- Phosphatidylcholine (C34:2) level vs controls: 0.77
- Phosphatidylcholine (C34:3) level vs controls: 0.60
- Phosphatidylcholine (C36:0) level vs controls: 1.62
- Phosphatidylcholine (C36:1) level vs controls: 1.21
- Phosphatidylcholine (C36:2) level vs controls: 0.80
- Phosphatidylcholine (C36:3) level vs controls: 0.87
- Phosphatidylcholine (C36:4) level vs controls: 1.08
- Phosphatidylcholine (C38:6) level vs controls: 1.09
- Phosphatidylethanolamine (C32:0) level vs controls: 1.63
- Phosphatidylethanolamine (C34:0) level vs controls: 1.79
- Phosphatidylethanolamine (C34:1) level vs controls: 1.38
- Phosphatidylethanolamine (C34:2) level vs controls: 0.93
- Phosphatidylethanolamine (C36:0) level vs controls: 2.10
- Phosphatidylethanolamine (C36:1) level vs controls: 1.81
- Phosphatidylethanolamine (C36:3) level vs controls: 0.84
- Phosphatidylethanolamine (C38:5) level vs controls: 0.93
- Phosphatidylethanolamine (C40:7) level vs controls: 0.79
- Proline level vs controls: 0.64
- Propionylcarnitine level vs controls: 1.03
- Sphingomyelin (d32:1) level vs controls: 0.84
- Sphingomyelin (d35:1) level vs controls: 1.06
- Sphingomyelin (d38:2) level vs controls: 0.94
- Sphingomyelin (d40:2) level vs controls: 0.77
- Sphingomyelin (d41:2) level vs controls: 0.85
- Sphingomyelin (d42:2) level vs controls: 0.74
- Triacylglycerol (C30:0.C18:1) level vs controls: 0.36
- Triacylglycerol (C32:0.C16:1) level vs controls: 0.41
- Triacylglycerol (C32:1.C16:1) level vs controls: 0.26
- Triacylglycerol (C34:0.C18:1) level vs controls: 0.47
- Triacylglycerol (C34:1.C16:0) level vs controls: 0.39
- Triacylglycerol (C34:1.C18:1) level vs controls: 0.47
- Triacylglycerol (C34:2.C18:0) level vs controls: 0.40
- Triacylglycerol (C34:2.C18:1) level vs controls: 0.24
- Triacylglycerol (C36:1.C18:0) level vs controls: 0.46
- Triacylglycerol (C36:1.C18:1) level vs controls: 0.35
- Triacylglycerol (C36:1.C18:2) level vs controls: 0.46
- Triacylglycerol (C36:2.C18:1) level vs controls: 0.41
- Triacylglycerol (C36:3.C18:1) level vs controls: 0.38
- Tyrosine level vs controls: 1.14
- myo-Inositol-2-phosphate level vs controls: 0.65
- Sphingomyelin (d34:2) level vs controls [1]: 1.05
- Sphingomyelin (d34:2) level vs controls [2]: 1.07
